How the values were obtained:
Assay type in all cases: biochemical
[1] = target: T1, E coli. poly(A) polymerase (Escherichia coli, UniProt P0ABF1); test: Poly(A) polymerase-based extension of C, G and U-terminated model short RNAs, Urea-PAGE; conditions: for addition of oligo nucleotide analogue to model short RNAs with different 3′ terminal bases: 1 mM, 37° C., 15 minutes
Protocol: In this example, 2-Amino-ATP, 2-Amino-6-Cl-purine-rTP and 2′-F-dATP have been tested for poly(A) polymerase-based extension to add the respective oligo nucleotide analogue sequences to the 3′ termini of model short RNAs with different terminal bases other than A, i.e. C, G and U-terminated model short RNAs as shown in Table 1. ATP was used as the positive control. The reaction cocktail for the poly(A) polymerase-based extension for each model short RNA was prepared as described in Table 2. The 10 μL of the reaction mixture was incubated at 37° C. for 15 minutes to allow the addition of 2-Amino-6-Cl-purine-rTP to the model short RNAs. The reacted RNA products were visualized using Urea-PAGE.

[2] = target: T1, E coli. poly(A) polymerase; test: Poly(A) polymerase-based extension of model short RNA (A-terminated), Urea-PAGE; conditions: for addition of nucleotide analogue sequence to the 3′ termini of the model short RNA: 1 mM analogue, 15 minutes, model short RNA (A-terminated)
Protocol: The reaction cocktail was used in the subsequent studies as described in examples below.
ATP was used as the positive control. The reaction cocktail for the poly(A) polymerase-based extension for each of the nucleoside analogue triphosphates and ATP was prepared as described in Table 2. The 10 μL of the reaction cocktail was incubated at 37° C. for 15 minutes to allow the extension of the adenine nucleotides (A) or nucleotide analogues. The reacted RNA products were visualized using Urea-PAGE.
The experiment was further repeated for 2-Amino-6-Cl-purine-rTP addition by poly(A) polymerase-based extension with different incubation times, i.e. 5, 10, 15, 20 minutes respectively. Addition of ATP by poly(A) polymerase-based extension with 20-minute incubation time was used as the positive control. The reacted RNA products were visualized using Urea-PAGE.

[3] = target: T1, E coli. poly(A) polymerase; test: Poly(A) polymerase-based reaction with different nucleotide analogues and their combination on UnaG-120A mRNA, Fragment Analyzer; conditions: for addition to UnaG-120A mRNA by poly(A) polymerase: 1 mM total analogue, 37° C., 15 minutes; for appearance of the RNA product: UnaG-120A mRNA, Fragment Analyzer
Protocol: In this example, the ability of poly(A) polymerase-based reaction to add different nucleotide analogues to the 3′ termini of UnaG-120A mRNA as the oligo nucleotide analogue sequence has been tested. […] The 10 μL of the reaction mixture was incubated at 37° C. for 15 minutes. The reacted RNA products were visualized using Fragment Analyzer.

[4] = target: T1, E coli. poly(A) polymerase; test: Poly(A) polymerase-based extension of model mRNA mixture, Fragment Analyzer; conditions: mixture of CLuc-53AGGCCCCU, EGFP-40A, UnaG-120A; 15-minute extension
From the text: In this example, three model mRNAs CLuc-53AGGCCCCU, EGFP-40A, and UnaG-120A as shown in Table 1 are mixed in an equal amount to create a model mRNA mixture. The same poly(A) polymerase-based extension as described in Example 5 was used to add 2-Amino-6-Cl-purine-rTP to the model RNA mixture. Fragment Analyzer (Agilent®) was used to measure the lengths of the model RNA mixture before and after the reaction.

[5] = target: T1, E coli. poly(A) polymerase; test: One-pot 3′ extension of model short RNA, Urea-PAGE; conditions: 15 minutes analogue, then ATP added, 37° C.
Protocol: In this example, the reaction cocktail for the one-pot 3′ extension of model short RNA (as shown in Table 1) was prepared as described in Table 4. The reaction cocktail (without ATP) was incubated at 37° C. for 15 minutes to allow for 2-Amino-6-Cl-purine-rTP addition. After 15 minutes of reaction, 1 μL of 10 mM ATP (New England BioLabs®) was directly added into the reaction mixture, and further incubated for different durations of time at 37° C.

T1 sequence (P0ABF1 11-465): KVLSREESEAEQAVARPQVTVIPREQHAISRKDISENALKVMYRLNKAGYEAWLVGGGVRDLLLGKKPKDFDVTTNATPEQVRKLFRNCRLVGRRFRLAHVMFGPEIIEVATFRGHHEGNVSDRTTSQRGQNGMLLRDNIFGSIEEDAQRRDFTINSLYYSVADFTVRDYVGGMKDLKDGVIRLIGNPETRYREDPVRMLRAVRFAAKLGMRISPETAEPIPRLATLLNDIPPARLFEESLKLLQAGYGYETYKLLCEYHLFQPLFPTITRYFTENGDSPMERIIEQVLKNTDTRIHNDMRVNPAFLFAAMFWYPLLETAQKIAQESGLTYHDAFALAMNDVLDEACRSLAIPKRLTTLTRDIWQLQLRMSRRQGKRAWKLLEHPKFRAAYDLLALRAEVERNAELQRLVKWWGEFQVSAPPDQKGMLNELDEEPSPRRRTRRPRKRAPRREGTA

SMILES	addition of oligo nucleotide analogue to model short RNAs with different 3′ terminal bases [1]	addition of nucleotide analogue sequence to the 3′ termini of the model short RNA ([2]; 37° C.)	addition to UnaG-120A mRNA by poly(A) polymerase [3]	appearance of the RNA product [3]	comparison among nucleotide analogues [1]	time within which the reaction was complete ([2]; 37° C., 1 mM) [min]	nucleotides added to the 3′ terminus of model short RNA ([2]; 5 minutes incubation, 37° C., 1 mM)	length of tailed model short RNA product ([2]; 5 minutes incubation, original RNA 136 nt) [nt]	addition of oligo sequence to model mRNAs (upward band shift) [4]	sequential addition of oligo analogue sequence and oligo(A) sequence [5]
Nc1nc(N)c2ncn(C3OC(COP(=O)(O)OP(=O)(O)OP(=O)(O)O)C(O)C3O)c2n1 (stereo not shown) [2-Amino-ATP]	successfully added	successfully added	can be added	distribution of RNA sizes shown as a smear	–	–	–	–	–	–
Nc1nc(Cl)c2ncn(C3OC(COP(=O)(O)OP(=O)(O)OP(=O)(O)O)C(O)C3O)c2n1 (stereo not shown) [2-Amino-6-Cl-purine-rTP]	successfully added	successfully added	can be added	upshifted clear main band	produced the best results	10 to 20	over 60 nts	> 196	added to all model mRNAs	successfully added
Nc1ncnc2c1ncn2C1OC(COP(=O)(O)OP(=O)(O)OP(=O)(O)O)C(O)C1F (stereo not shown) [2′-F-dATP]	successfully added	successfully added	–	–	–	–	–	–	–	–

Source: US20240309447A1, “METHODS AND KITS FOR PREPARING A SAMPLE […] OR MORE RNA MOLECULES FOR SEQUENCING” (The Hong Kong University of Science and Technology, priority 2023, published 2024)
